The values below come from patent publication US9499550B2 (BRISTOL-MYERS SQUIBB COMPANY, priority 2012, dated 2016).

By pEC50 is commonly meant −log10 of the EC50, conventionally taken in molar units.

pEC50: −log10 of the molar value. Like-named read-outs stand apart in the source and are kept apart here.

Assay [1] concerns HCV genotype 1a (H77 strain) replicon in HUH-7 cells. Kind of assay: HCV replicon luciferase reporter assay, genotype 1a. It counts as cell-based. The settings on record: Hepatitis C virus, Huh-7, 72 h, HCV genotype 1a replicon luciferase, 3 days incubation. The gist of the method: (§1)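 Replicon inhibition for both genotypes was measured as Renilla luciferase signal (EnduRen, 7.5 μM final, 2 h) after 3-day, 37° C exposure of replicon-bearing HUH-7 cells in 4% FCS DMEM, 0.5% DMSO. The 1b construct carries S1179I; the 1a H77 construct carries P1496L and S2204I. Twenty-point, 3-fold dilutions were fitted four-parametrically for EC50, and CC50 was taken from multiplexed Cell Titer-Blue.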
A general note: Replicon systems follow genome replication, usually without infectious particles.

Assay [2] has as its system HCV genotype 1b (Con1) replicon in HUH-7 cells. Kind of assay: HCV replicon luciferase reporter assay, genotype 1b. It counts as cell-based. The settings on record: Hepatitis C virus, Huh-7, 72 h, HCV genotype 1b replicon luciferase, 3 days incubation. The gist of the method:
as §1

On to `C[C@H]1CC/C=C\[C@@H]2C[C@@]2(C(=O)NS(=O)(=O)C2(C)CC2)NC(=O)[C@@H]2C[C@@H](Oc3nccc4c5c(ccc34)OCCO5)CN2C(=O)[C@@H](NC(=O)OCC2(C)CC2)[C@H](C)C1` [Compound 5250, (1-methylcyclopropyl)methyl ((2R,6S,7R,9S,13aS,14aR,16aS,Z)-2-((2,3-dihydro-[1,4]dioxino[2,3-f]isoquinolin-7-yl)oxy)-7,9-dimethyl-14a-(((1-methylcyclopropyl)sulfonyl)carbamoyl)-5,16-dioxo-1,2,3,5,6,7,8,9,10,11,13a,14,14a,15,16,16a-hexadecahydrocyclopropa[e]pyrrolo[1,2-a][1,4]diazacyclopentadecin-6-yl)carbamate], for which the pEC50 is 7.65 in assay [1] (read-out: LE_1a (EC50)); 6.99 to 8.32 in assay [1] (read-out: LE_1a (EC50, range)); 8.26 in assay [2] (read-out: LE_1b (EC50)); 6.99 to 8.32 in assay [2] (read-out: LE_1b (EC50, range)).
As for `C[C@@H]1CC/C=C\[C@@H]2C[C@@]2(C(=O)NS(=O)(=O)C2(C)CC2)NC(=O)[C@@H]2C[C@@H](Oc3nccc4c5c(ccc34)OCCO5)CN2C(=O)[C@@H](NC(=O)OCC2(C)CC2)[C@H](C)C1` [Compound 5251, (1-methylcyclopropyl)methyl ((2R,6S,7R,9R,13aS,14aR,16aS,Z)-2-((2,3-dihydro-[1,4]dioxino[2,3-f]isoquinolin-7-yl)oxy)-7,9-dimethyl-14a-(((1-methylcyclopropyl)sulfonyl)carbamoyl)-5,16-dioxo-1,2,3,5,6,7,8,9,10,11,13a,14,14a,15,16,16a-hexadecahydrocyclopropa[e]pyrrolo[1,2-a][1,4]diazacyclopentadecin-6-yl)carbamate], the pEC50 in assay [1] (read-out: LE_1a (EC50, range)) was > 8.26; in assay [2] (read-out: LE_1b (EC50, range)) it was > 8.26.
As for `C[C@H]1CC/C=C\[C@@H]2C[C@@]2(C(=O)NS(=O)(=O)C2(C)CC2)NC(=O)[C@@H]2C[C@@H](Oc3nccc4c5c(ccc34)OCCO5)CN2C(=O)[C@@H](NC(=O)O[C@H](C)C(F)(F)F)[C@H](C)C1` [Compound 5252, (R)-1,1,1-trifluoropropan-2-yl ((2R,6S,7R,9S,13aS,14aR,16aS,Z)-2-((2,3-dihydro-[1,4]dioxino[2,3-f]isoquinolin-7-yl)oxy)-7,9-dimethyl-14a-(((1-methylcyclopropyl)sulfonyl)carbamoyl)-5,16-dioxo-1,2,3,5,6,7,8,9,10,11,13a,14,14a,15,16,16a-hexadecahydrocyclopropa[e]pyrrolo[1,2-a][1,4]diazacyclopentadecin-6-yl)carbamate], the pEC50 in assay [1] (read-out: LE_1a (EC50)) was 7.82; in assay [1] (read-out: LE_1a (EC50, range)), 6.99 to 8.32; in assay [2] (read-out: LE_1b (EC50)), 8.39; in assay [2] (read-out: LE_1b (EC50, range)), > 8.26.
For `C[C@@H]1CC/C=C\[C@@H]2C[C@@]2(C(=O)NS(=O)(=O)C2(C)CC2)NC(=O)[C@@H]2C[C@@H](Oc3nccc4c5c(ccc34)OCCO5)CN2C(=O)[C@@H](NC(=O)O[C@H](C)C(F)(F)F)[C@H](C)C1` [Compound 5253, (R)-1,1,1-trifluoropropan-2-yl ((2R,6S,7R,9R,13aS,14aR,16aS,Z)-2-((2,3-dihydro-[1,4]dioxino[2,3-f]isoquinolin-7-yl)oxy)-7,9-dimethyl-14a-(((1-methylcyclopropyl)sulfonyl)carbamoyl)-5,16-dioxo-1,2,3,5,6,7,8,9,10,11,13a,14,14a,15,16,16a-hexadecahydrocyclopropa[e]pyrrolo[1,2-a][1,4]diazacyclopentadecin-6-yl)carbamate], the negative logarithm of the EC50 (pEC50) in assay [1] (read-out: LE_1a (EC50, range)) was > 8.26; in assay [2] (read-out: LE_1b (EC50, range)), > 8.26.
For the molecule `C[C@H]1CC/C=C\[C@@H]2C[C@@]2(C(=O)NS(=O)(=O)C2CC2)NC(=O)[C@@H]2C[C@@H](Oc3nccc4c5c(ccc34)OC(F)(F)O5)CN2C(=O)[C@@H](NC(=O)OC(C)(C)C)[C@H](C)C1` [Compound 5256, tert-butyl ((2R,6S,7R,9S,13aS,14aR,16aS,Z)-14a-((cyclopropylsulfonyl)carbamoyl)-2-((2,2-difluoro-[1,3]dioxolo[4,5-f]isoquinolin-6-yl)oxy)-7,9-dimethyl-5,16-dioxo-1,2,3,5,6,7,8,9,10,11,13a,14,14a,15,16,16a-hexadecahydrocyclopropa[e]pyrrolo[1,2-a][1,4]diazacyclopentadecin-6-yl)carbamate], the pEC50 was 7.68 in assay [1] (read-out: LE_1a (EC50)); 6.99 to 8.32 in assay [1] (read-out: LE_1a (EC50, range)); 7.89 in assay [2] (read-out: LE_1b (EC50)); 6.99 to 8.32 in assay [2] (read-out: LE_1b (EC50, range)).
Take `C[C@@H]1CC/C=C\[C@@H]2C[C@@]2(C(=O)NS(=O)(=O)C2CC2)NC(=O)[C@@H]2C[C@@H](Oc3nccc4c5c(ccc34)OC(F)(F)O5)CN2C(=O)[C@@H](NC(=O)OC(C)(C)C)[C@H](C)C1` [Compound 5257, tert-butyl ((2R,6S,7R,9R,13aS,14aR,16aS,Z)-14a-((cyclopropylsulfonyl)carbamoyl)-2-((2,2-difluoro-[1,3]dioxolo[4,5-f]isoquinolin-6-yl)oxy)-7,9-dimethyl-5,16-dioxo-1,2,3,5,6,7,8,9,10,11,13a,14,14a,15,16,16a-hexadecahydrocyclopropa[e]pyrrolo[1,2-a][1,4]diazacyclopentadecin-6-yl)carbamate]: the pEC50 in assay [1] (read-out: LE_1a (EC50, range)) was > 8.26; in assay [2] (read-out: LE_1b (EC50, range)) it was > 8.26.
With `C[C@H]1CC/C=C\[C@@H]2C[C@@]2(C(=O)NS(=O)(=O)C2CC2)NC(=O)[C@@H]2C[C@@H](Oc3nccc4c5c(ccc34)OCCO5)CN2C(=O)[C@@H](NC(=O)OC(C)(C)C(F)(F)F)[C@H](C)C1` [Compound 5258, 1,1,1-trifluoro-2-methylpropan-2-yl((2R,6S,7R,9S,13aS,14aR,16aS,Z)-14a-((cyclopropylsulfonyl)carbamoyl)-2-((2,3-dihydro-[1,4]dioxino[2,3-f]isoquinolin-7-yl)oxy)-7,9-dimethyl-5,16-dioxo-1,2,3,5,6,7,8,9,10,11,13a,14,14a,15,16,16a-hexadecahydrocyclopropa[e]pyrrolo[1,2-a][1,4]diazacyclopentadecin-6-yl)carbamate], the pEC50 in assay [1] (read-out: LE_1a (EC50, range)) is 6.99 to 8.32; in assay [2] (read-out: LE_1b (EC50, range)), > 8.26.
The matching figures for `C[C@@H]1CC/C=C\[C@@H]2C[C@@]2(C(=O)NS(=O)(=O)C2CC2)NC(=O)[C@@H]2C[C@@H](Oc3nccc4c5c(ccc34)OCCO5)CN2C(=O)[C@@H](NC(=O)OC(C)(C)C(F)(F)F)[C@H](C)C1` [Compound 5259, 1,1,1-trifluoro-2-methylpropan-2-yl((2R,6S,7R,9R,13aS,14aR,16aS,Z)-14a-((cyclopropylsulfonyl)carbamoyl)-2-((2,3-dihydro-[1,4]dioxino[2,3-f]isoquinolin-7-yl)oxy)-7,9-dimethyl-5,16-dioxo-1,2,3,5,6,7,8,9,10,11,13a,14,14a,15,16,16a-hexadecahydrocyclopropa[e]pyrrolo[1,2-a][1,4]diazacyclopentadecin-6-yl)carbamate]: > 8.26 and > 8.26.
As to `CCC(C)(OC(=O)N[C@@H]1C(=O)N2C[C@H](Oc3nccc4c5c(ccc34)OCCO5)C[C@H]2C(=O)N[C@]2(C(=O)NS(=O)(=O)C3CC3)C[C@H]2/C=C\CC[C@@H](C)C[C@H]1C)C(F)(F)F` (stereo partly drawn) [Compound 5260], the negative-log EC50 (pEC50) in assay [1] (GETYPE1A, read-out: LE_1a (EC50, range)) was > 8.26; in assay [2] (GETYPE1B, read-out: LE_1b (EC50, range)), > 8.26.
